Literature values as cited in patent US8911777B2, “Pharmaceutical composition of tacrolimus” (Sigmoid Pharma Limited, priority 2007, dated 2014).

Columns and labels:
[1] = after oral administration of conventional IR tablets
[2] = whole blood; Masuda et al. 2006

Structure (SMILES): C=CC[C@@H]1/C=C(\C)C[C@H](C)C[C@H](OC)[C@H]2O[C@@](O)(C(=O)C(=O)N3CCCC[C@H]3C(=O)O[C@H](/C(C)=C/[C@@H]3CC[C@@H](O)[C@H](OC)C3)[C@H](C)[C@@H](O)CC1=O)[C@H](C)C[C@@H]2OC [Tacrolimus]
- persistence of drug effects [1]: 8 to 12 h
- blood concentration at which adverse effects occurred [2]: higher than 15 ng/ml
